Consider four compounds from patent US9890175B2, “Taxane compound, and preparation method and use thereof” (JIANGSU TASLY DIYI PHARMACEUTICAL CO., LTD., priority 2013, dated 2018).

Data set [1] deals with A2780 ovarian cancer. Briefly: MTT proliferation inhibition, A2780. It counts as cell-based. The settings on record: Homo sapiens, A2780, read-out: Proliferation inhibition rate, A2780 Ovarian cancer. The text has this: (§1) 1. Cytotoxicity Assay Using Human Tumor Cell Lines
(§2) Paclitaxel was used as the positive drug.

Data set [2] deals with Hela cervical cancer. Nature of the data set: MTT proliferation inhibition, HeLa. It counts as cell-based. The settings on record: Homo sapiens, read-out: Proliferation inhibition rate, HeLa Uterin cancer.
From the text: as §1, §2

The test system of data set [3] is MCF-7 breast cancer cells. Nature of the data set: MTT proliferation inhibition, MCF-7. It counts as cell-based. The settings on record: Homo sapiens, MCF7, read-out: Proliferation inhibition rate, MCF-7 Breast cancer.
From the text: as §1, §2

In data set [4] the test system is NCI-H460 non-small cell lung cancer. Briefly: MTT proliferation inhibition, NCI-H460. It is filed as cell-based. The following applies: Homo sapiens, NCI-H460, read-out: Proliferation inhibition rate, NCI-H460 Non-small cell lung cancer.
From the text: as §1, §2

The test system of data set [5] is A375 melanoma. Nature of the data set: MTT proliferation inhibition, A375. It counts as cell-based. The settings on record: Homo sapiens, A-375, read-out: Proliferation inhibition rate, A375 Melanoma.
From the text: as §1, §2

Data set [6] has as its system HT-29 colon cancer. Briefly: MTT proliferation inhibition, HT-29. The following applies: Homo sapiens, HT-29, read-out: Proliferation inhibition rate, HT29 Colon cancer. It counts as cell-based.
From the text: as §1, §2

The test system of data set [7] is HL-60 leukemia. Nature of the data set: MTT proliferation inhibition, HL-60. It counts as cell-based. The following applies: Homo sapiens, HL-60, read-out: Proliferation inhibition rate, HL60 Leukemia.
From the text: as §1, §2

For data set [8], the system named is Du145 prostate cancer. Nature of the data set: MTT proliferation inhibition, Du145. The settings on record: Homo sapiens, DU-145, read-out: Proliferation inhibition rate, DU145 Prostate cancer. It counts as cell-based.
From the text: as §1, §2

The test system of data set [9] is MDA-MB-436 breast cancer cells. Briefly: MTT proliferation inhibition, MDA-MB-436. It counts as cell-based. The settings on record: Homo sapiens, MDA-MB-436, read-out: Proliferation inhibition rate, MDA-MB-436 Breast cancer.
From the text: as §1, §2

Data set [10] deals with LN-18. Briefly: MTT proliferation inhibition, LN-18. It is filed as cell-based. The following applies: Homo sapiens, LN-18, read-out: Proliferation inhibition rate, LN-18 Gastric canser.
From the text: as §1, §2

The test system of data set [11] is BGC-823 gastric cancer. Nature of the data set: MTT proliferation inhibition, BGC-823. It counts as cell-based. The following applies: Homo sapiens, BGC-823, read-out: Proliferation inhibition rate, BGC-823 Gastric cancer.
From the text: as §1, §2

For data set [12], the system named is A549 non-small cell lung cancer. Nature of the data set: MTT proliferation inhibition, A549. It counts as cell-based. The settings on record: Homo sapiens, A549, read-out: Proliferation inhibition rate, A549 Non-small cell lung cancer.
From the text: as §1, §2

The subject of data set [13] is B16 melanoma. Briefly: MTT proliferation inhibition, B16. It counts as cell-based. The settings on record: B16, read-out: Proliferation inhibition rate, B16 Melanoma.
From the text: as §1, §2

Data set [14] deals with HCT 116 colon cancer. Nature of the data set: MTT proliferation inhibition, HCT 116. It counts as cell-based. The following applies: Homo sapiens, HCT-116, read-out: Proliferation inhibition rate, HCT 116 Colon cancer.
From the text: as §1, §2

In data set [15] the test system is K562 leukemia. Briefly: MTT proliferation inhibition, K562. It is filed as cell-based. The following applies: Homo sapiens, K562, read-out: Proliferation inhibition rate, K562 Leukemia.
From the text: as §1, §2

Data set [16] relates to LNCaP prostate cancer. Briefly: MTT proliferation inhibition, LNCaP. The following applies: Homo sapiens, read-out: Proliferation inhibition rate, LNCaP Prostate cancer. It is filed as cell-based.
From the text: as §1, §2

Data set [17] deals with breast cancer cell line MCF-7. Nature of the data set: IC50 on breast cancer cell line MCF-7. It counts as cell-based. The settings on record: Homo sapiens.
Data set [18] in a line: Caco-2 cell monolayer membrane transport assay (Papp and recovery). It counts as in vitro ADME. The settings on record: human. In general terms: Passage across Caco-2 layers is used to estimate intestinal permeability.
From the text: Caco-2 Cell Monolayer Membrane Transport Assay
(§3) Human-derived colorectal adenocarcinoma cell line Caco-2 cell monolayer model was used to study the bidirectional transport of the target compounds from the apical (AP) side to the basolateral (BL) side and from BL side to AP side. HPLC was used for quantitative analysis to calculate transport parameters, apparent permeability coefficient (Papp) and the efflux ratio.
The test system of data set [19] is Caco-2 cell monolayer. Briefly: Caco-2 bidirectional transport, efflux ratio. The settings on record: Caco-2 cell line (21 days); for efflux ratio: Papp B-A/Papp A-B.
From the text: as §3
In data set [20] the test system is Caco-2 cell monolayer. The following applies: human.
From the text: as §3
The conditions of data set [21]: reported value; cited from earlier work.
The nature of data set [22]: Caco-2 bidirectional transport, efflux ratio. The following applies: human, Caco-2.
From the text: as §3
Setting [23] is: MCF7, 72 h, read-out: MCF-7 (IC50, nM).
The mark [24] stands for this setting: Caco-2, Caco-2, A-B, Mean, read-out: Papp A-B, Mean.
Where [25] appears, read: Caco-2, Caco-2, A-B, Mean, read-out: Recovery rate in mass, Mean.
Setting [26] is: Caco-2, Caco-2, A-B, Sample-01, read-out: Papp A-B, Sample-01.
The mark [27] stands for this setting: Caco-2, Caco-2, A-B, Sample-01, read-out: Recovery rate in mass, Sample-01.
Where [28] appears, read: Caco-2, Caco-2, A-B, Sample-02, read-out: Papp A-B, Sample-02.
Setting [29] is: Caco-2, Caco-2, A-B, Sample-02, read-out: Recovery rate in mass, Sample-02.

Each structure is given as a SMILES string. Where two headings read alike, the source gives them in different places.

Turning to `CO[C@H]1C(=O)[C@]2(C)CC[C@H]3OC[C@@]3(OC(C)=O)[C@H]2[C@H](OC(=O)c2ccccc2)[C@]23OC(=O)O[C@H]2[C@H](OC(=O)[C@H](O)[C@@H](NC(=O)OC(C)(C)C)c2ccccc2)C(C)=C1C3(C)C` [PCMI-07], the inhibition at 1 µM in data set [1] stood at 95%; in data set [2], 100%; in [3], 87.1%; in data set [4] it was 82.7%; in [5] it was 92.5%; in data set [6], 86.6%. Further, the inhibition at 1 µM in [7] is 97.5%; in [8] it was 86.8%; in data set [9], 80.5%; in data set [10], 96.1%; in [11], 94.1%; in data set [12], 74.9%. The inhibition at 1 µM came out at 78.6% in [13], 68.8% in [14], 94% in data set [15] and 84.9% in [16]. Besides, the half-inhibitory concentration (IC50) (commonly the concentration at which inhibition is half-maximal) in [17] (setting [23]) came to 4.49 ± 0.02 nM. The figures for the Papp A→B in data set [18] (setting [24]), in [18] (setting [26]) and in [18] (setting [28]) were 2.64 ×10⁻⁶ cm/s, 3.24 ×10⁻⁶ cm/s and 2.05 ×10⁻⁶ cm/s, respectively. The recovery in data set [18] (setting [25]) came to 50.3%; in [18] (setting [27]), 54.2%; in data set [18] (setting [29]) it was 46.3%. In addition, the “Papp A-B” value in [19] is on record as 2.64 10^−6 cm/s. Further, the “Papp B-A” value in [19] is given as 25.26 10^−6 cm/s. Moreover, the efflux ratio (as a rule, a quotient of directional permeabilities that is used to spot active efflux) in data set [19] is 9.56.

As to `CC(=O)O[C@H]1C(=O)[C@@]2(C)[C@H]([C@H](OC(=O)c3ccccc3)[C@]3(O)C[C@H](OC(=O)[C@H](O)[C@@H](NC(=O)c4ccccc4)c4ccccc4)C(C)=C1C3(C)C)[C@]1(OC(C)=O)CO[C@@H]1C[C@@H]2O` [Paclitaxel, reference compound], the IC50 in data set [17] (MCF7, 72 hours exposure, mean±SD of three experiments, read-out: MCF-7 (IC50)) was found to be 7.05 nM. The apparent permeability from apical to basolateral (Papp A→B) (commonly the apparent permeability from the apical to the basolateral side of a cell layer) is 0.97 ×10⁻⁶ cm/s in data set [18] (Caco-2, Papp A-B, Mean); 1.02 ×10⁻⁶ cm/s in data set [18] (Caco-2, Papp A-B, Sample-01); 0.93 ×10⁻⁶ cm/s in [18] (Caco-2, Papp A-B, Sample-02). Further, the recovery in data set [18] (Caco-2, Recovery rate in mass, Mean) is 101%; in data set [18] (Caco-2, Recovery rate in mass, Sample-01), 94.6%; in data set [18] (Caco-2, Recovery rate in mass, Sample-02), 107%. For the same compound, the “Papp A-B” value in data set [20] is 0.97 10^−6 cm/s. In data set [20], the “Papp B-A” value is on record as 33.39 10^−6 cm/s. In addition, the efflux ratio in data set [20] came to 34.38. Besides, the “reported absolute oral bioavailability” value in data set [21] is “less than 6%”.

`CO[C@H]1C(=O)[C@]2(C)[C@@H](OC)C[C@H]3OC[C@@]3(OC(C)=O)[C@H]2[C@H](OC(=O)c2ccccc2)[C@]23OC(=O)O[C@H]2[C@H](OC(=O)[C@H](O)[C@@H](NC(=O)OC(C)(C)C)c2ccccc2)C(C)=C1C3(C)C` [PCMI-01]: the inhibition at 1 µM was 96.7% in [1]; 101% in [2]; 96% in data set [3]; 87.9% in data set [4]; 90.8% in [5]; 89.4% in data set [6]. For the same compound, the inhibition at 1 µM in [7] was found to be 96.6%; in data set [8] it was 87.8%; in [9], 81.5%; in data set [10], 92.8%; in [11], 93.1%; in data set [12] it was 66.9%. Also, the inhibition at 1 µM in data set [13] was 78.1%; in data set [14], 59.7%; in data set [15] it was 92.8%; in data set [16] it was 80.7%. Also, the 50% inhibitory concentration (IC50) in data set [17] (setting [23]) was determined as 2.1 ± 0.08 nM. For the same compound, the apparent permeability from apical to basolateral (Papp A→B) is 4.17 ×10⁻⁶ cm/s in [18] (setting [24]), 4.47 ×10⁻⁶ cm/s in [18] (setting [26]) and 3.87 ×10⁻⁶ cm/s in [18] (setting [28]). The recovery in data set [18] (setting [25]) turned out to be 54.7%; in [18] (setting [27]) it was 48.2%; in data set [18] (setting [29]), 61.2%. Also, in data set [19], the “Papp A-B” value is listed as 2.83 10^−6 cm/s. Moreover, the “Papp B-A” value in [19] was 18.20 10^−6 cm/s. The efflux ratio in [19] is given as 6.42.

As for `COC(=O)O[C@H]1C[C@H]2OC[C@@]2(OC(C)=O)[C@H]2[C@H](OC(=O)c3ccccc3)[C@]34OC(=O)O[C@H]3[C@H](OC(=O)[C@H](O)[C@H](CC(C)C)NC(=O)OC(C)(C)C)C(C)=C([C@@H](OC)C(=O)[C@]12C)C4(C)C` [PCMI-20], the inhibition at 1 µM in data set [1] was 95.5%; in data set [2], 101%; in data set [3], 85.4%; in data set [4], 86.8%; in [5] it was 93.4%; in data set [6] it was 87.2%. For the same compound, the inhibition at 1 µM in data set [7] stood at 96.9%; in data set [8], 88.6%; in data set [9] it was 81.1%; in data set [10], 94.3%; in data set [11], 95%; in [12], 80.4%. Moreover, the inhibition at 1 µM in data set [13] is 81.6%; in [14], 68.6%; in data set [15] it was 93.8%; in [16] it was 86%. Further, the IC50 in data set [17] (setting [23]) was 2.94 ± 0.04 nM. Moreover, the Papp A→B is 0.92 ×10⁻⁶ cm/s in [18] (setting [24]), 1.08 ×10⁻⁶ cm/s in data set [18] (setting [26]), 0.75 ×10⁻⁶ cm/s in data set [18] (setting [28]) and 0.92 ×10⁻⁶ cm/s in [22]. Also, the recovery was 86.5% in data set [18] (setting [25]), 89.8% in data set [18] (setting [27]) and 83.3% in [18] (setting [29]). In data set [19], the “Papp B-A” value is 7.16 10^−6 cm/s. Further, the efflux ratio in [19] was 7.81.
